In brackets after ≈: the same amount, converted by molar mass. Activity calls are given as the source filed them. No cut-off for these calls is given here. Bounds are passed on as bounds.

Data on 13 molecules can be found in ChEMBL document CHEMBL4732228, “The total synthesis of berberine and selected analogues, and their evaluation as amyloid beta aggregation inhibitors” (Eur J Med Chem, 2021).

A short description of data set [1]: Water solubility of the compound at 1 mg incubated for 12 hrs under shaking condition by UV-HPLC analysis. In kind it is physicochemical.
Data set [2] in a line: Cytotoxicity against rat PC12 cells assessed as reduction in cell viability incubated for 24 hrs by WST-8 assay. Format: cell-based, PC-12.
In data set [3] the target is Amyloid-beta precursor protein (Homo sapiens) (UniProt P05067). Briefly: Inhibition of amyloid beta (1 to 42 ) (unknown origin) aggregation at 10 uM after 20 hrs by thioflavin-T fluorescence method relative to control.
Sequence of Amyloid-beta precursor protein (Homo sapiens) (P05067 whole entry): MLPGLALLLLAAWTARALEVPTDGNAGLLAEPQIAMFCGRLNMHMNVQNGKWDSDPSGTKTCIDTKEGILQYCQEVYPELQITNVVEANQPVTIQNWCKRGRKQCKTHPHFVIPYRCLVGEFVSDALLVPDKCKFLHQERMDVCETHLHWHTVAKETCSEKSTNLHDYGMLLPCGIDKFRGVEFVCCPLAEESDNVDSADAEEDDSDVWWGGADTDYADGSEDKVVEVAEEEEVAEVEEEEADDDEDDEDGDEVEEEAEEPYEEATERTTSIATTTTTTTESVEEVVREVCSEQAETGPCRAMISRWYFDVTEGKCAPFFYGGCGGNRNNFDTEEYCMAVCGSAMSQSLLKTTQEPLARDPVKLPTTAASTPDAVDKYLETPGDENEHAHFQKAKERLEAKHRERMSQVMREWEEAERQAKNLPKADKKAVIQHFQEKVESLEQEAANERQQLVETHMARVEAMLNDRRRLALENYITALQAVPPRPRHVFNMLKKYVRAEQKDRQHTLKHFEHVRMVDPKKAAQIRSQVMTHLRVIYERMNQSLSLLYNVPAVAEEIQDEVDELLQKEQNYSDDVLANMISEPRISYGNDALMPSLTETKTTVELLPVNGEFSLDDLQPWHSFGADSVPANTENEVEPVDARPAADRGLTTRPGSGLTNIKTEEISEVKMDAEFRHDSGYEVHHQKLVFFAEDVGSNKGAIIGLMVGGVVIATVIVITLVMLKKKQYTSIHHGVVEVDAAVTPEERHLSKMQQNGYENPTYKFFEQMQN
Data set [4] shares this target. Briefly: Inhibition of amyloid beta (1 to 42 ) (unknown origin) aggregation assessed as decrease in size of amyloid beta fibrils after 20 hrs by TEM analysis (reference value: 1 micrometer).
The target is the same in data set [5]. Briefly: Inhibition of amyloid beta (1 to 42 ) (unknown origin) aggregation assessed as appearance of nano-rod like amyloid beta fragments after 20 hrs by CD spectroscopic method.
Data set [6] has the same target. Briefly: Inhibition of amyloid beta (1 to 42 ) (unknown origin) aggregation assessed as decrease in diameter of aggregate after 20 hrs by dynamic light scattering analysis (reference value: 4.6 micrometer).
A short description of data set [7]: Ratio of compound solubility to curcumin solubility in water after 12 hrs by UV-HPLC analysis. Format: physicochemical. The following applies: buffer.

What is called solubility (thermodynamic) is solubility found after equilibrating the solid with the medium. For orientation: CC50 means the concentration that lowers cell viability or growth by half. Regarding `COc1ccc2ccn(CCc3cc4c(cc3Br)OCO4)c(=O)c2c1OC`, in data set [1], the solubility (thermodynamic) at 12 h is 15 µM (≈ 6.48 µg/mL). Further, in data set [2], the CC50 at 24 h is 132 µM.
As usually defined, the inhibition is the percentage by which the read-out fell short of the control. Molecule `O=C1C=C(c2ccc(O)c(O)c2)OC(c2cc(O)ccc2O)C1` (configuration not stated) gave a solubility (thermodynamic) at 12 h in data set [1] of 2340 µM (≈ 735 µg/mL). The inhibition in data set [3] came to 100%. Further, the CC50 at 24 h in data set [2] was determined as 114 µM.
Consider `COc1cc(/C=C/C(=O)CC(=O)/C=C/c2ccc(O)c(OC)c2)ccc1O` [CURCUMIN], for which the CC50 at 24 h in data set [2] came to 44 µM.
For the molecule `COc1ccc2cc[nH]c(=O)c2c1OC`, the thermodynamic solubility at 12 h in data set [1] was 5.2 µM (≈ 1.07 µg/mL). Besides, in data set [2], the CC50 at 24 h came out at 129 µM.
Consider `COc1ccc2cc3[n+](cc2c1OC)CCc1cc(O)c(O)cc1-3.[Cl-]`, for which the thermodynamic solubility at 12 h in data set [1] turned out to be 2750 µM. For the same molecule, the inhibition in data set [3] came out at 27%. In addition, the half-maximal cytotoxic concentration (CC50) at 24 h in data set [2] was more than 150 µM.
The corresponding values for `COc1c(O)ccc2cc3[n+](cc12)CCc1cc(O)c(O)cc1-3.[Cl-]` are 1500 µM, 39% and 39 µM.
Turning to `Oc1cc2c(cc1O)C1Cc3ccc(O)c(O)c3CN1CC2` (configuration not stated), the values for the Activity in data set [4] and in data set [6] were 50 nm and 1.3 nm, respectively. Further, the inhibition result in data set [5] was “Active”. Further, in data set [1], the thermodynamic solubility at 12 h is more than 3340 µM. The molecule also gave an inhibition in data set [3] of 78%. In addition, the CC50 at 24 h in data set [2] is 114 µM.
Consider `Oc1cc2c(cc1O)-c1cc3ccc(O)c(O)c3c[n+]1CC2.[Cl-]`, for which the Activity in data set [4] was found to be 50 nm. The inhibition entry in data set [5] is “Active”. Also, the thermodynamic solubility at 12 h in data set [1] worked out at 2450 µM. This molecule also returned an inhibition in data set [3] of 72%. In data set [2], the half-maximal cytotoxic concentration (CC50) at 24 h stood at 9.8 µM.
Take `COc1ccc2cc3[n+](cc2c1OC)CCc1cc2c(cc1-3)OCO2.[Cl-]` [BERBERINE CHLORIDE]: in data set [1], the solubility (thermodynamic) at 12 h came out at 1780 µM. Besides, in data set [7], the Ratio turned out to be 9000. The molecule further displayed an inhibition in data set [3] of 32%. In data set [2], the CC50 at 24 h is more than 150 µM.
On to `CCOC(CNC(=O)c1cccc(OC)c1OC)OCC`, for which the solubility (thermodynamic) at 12 h in data set [1] turned out to be 26 µM (≈ 7.73 µg/mL). Besides, in data set [2], the CC50 at 24 h is more than 150 µM.
Take `COc1c(O)ccc2c1CN1CCc3cc(O)c(O)cc3C1C2` (configuration not stated): the solubility (thermodynamic) at 12 h in data set [1] is 2370 µM (≈ 743 µg/mL). In addition, in data set [3], the inhibition amounted to 61%. Also, in data set [2], the CC50 at 24 h was 91 µM.
`COc1ccc2c(c1OC)CN1CCc3cc4c(cc3C1C2)OCO4` (configuration not stated) [TETRAHYDROBERBERINE] showed a thermodynamic solubility at 12 h in data set [1] of 7 µM (≈ 2.38 µg/mL). Also, in data set [2], the CC50 at 24 h was more than 150 µM.
For the molecule `COc1ccc2cc3n(c(=O)c2c1OC)CCc1cc2c(cc1-3)OCO2` [OXYBERBERINE], in data set [2], the CC50 at 24 h was found to be 137 µM.
